SMILES strings stand for the structures.

One test has as its target T1, IC-GPCR2 (Homo sapiens, UniProt Q8TDV5, S309L).
T1 construct: expressed in transfected cells
T1 sequence (Q8TDV5 1-335 S309L): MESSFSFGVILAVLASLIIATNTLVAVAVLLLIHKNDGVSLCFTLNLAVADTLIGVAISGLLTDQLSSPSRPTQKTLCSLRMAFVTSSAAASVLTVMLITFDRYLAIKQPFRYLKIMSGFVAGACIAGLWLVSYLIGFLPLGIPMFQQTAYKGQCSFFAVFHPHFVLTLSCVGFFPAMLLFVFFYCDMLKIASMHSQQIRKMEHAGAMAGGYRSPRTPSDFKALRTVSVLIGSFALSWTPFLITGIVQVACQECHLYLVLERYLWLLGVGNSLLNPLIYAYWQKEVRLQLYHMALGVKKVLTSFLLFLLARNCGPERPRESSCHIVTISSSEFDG
As to the kind of experiment: Stimulation of cAMP in CHO cells stably expressing IC-GPCR2 (HTRF cAMP assay). The test is classed as cell-based. Also on record: key to Activity at 10 uM: *: no activity observed when tested at 10 micromolar but no higher concentrations were tested. As to conditions: 0.5 h, 30 minutes, IC-GPCR2 stably expressing CHO cells, read-out: Activity at 10 uM (% change in FRET signal from DMSO control). As to the method:
This assay was developed using a stable cell line expressing IC-GPCR-2, generated as follows. IC-GPCR2 (SEQ ID NO:1) was cloned into Gateway pDEST 40vector (Invitrogen), using the Gateway cloning system (invitrogen) according to the manufacturer's instructions. A stable cell line was generated by transfecting a 10 cm plate of CHO cells (source) with 8 ug of this construct using Transit-CHO transfection kit (Mirus). CHO cells were plated the day prior to transfection at a density of 3,000,000 cells/plate. Clones were selected using the antibiotic G418 at 500 ug/ml. 23 clones were picked and assayed for the expression of the receptor by measuring changes in intracellular cAMP levels in response to an IC-GPCR2 agonist.
To measure cAMP activity in response to IC-GPCR2 agonist, the clones were plated in 96 well plates at 17500 cells per well. On the day after plating, cells were incubated with the IC-CPCR2 agonist at […] for 30 minutes in Ham's F12 Media (Gibco) with 0.04% DMSO. cAMP was measured using the cAMP dynamic kit from Cis Bio (Bedford, Mass.) according to the manufacturer's instructions. Briefly, cells were lysed, and cAMP levels determined by competitive immunoassay using D2 labeled cAMP, and europium cryptate tagged anti cAMP antibody. When in close proximity, the D2 and europium cryptate undergo fluorescence resonance energy transfer (FRET), which is measured as a fluorescence ratio (665 nm/620 nm). Unlabelled cAMP in the cell lysate competed with the D2 labeled cAMP for the europium crypate labeled antibody. The resulting decrease in FRET signal corresponded to intracellular cAMP levels. Fluorescence was read on a BMG Labtech PHERAstar, software version 1.50.
Compounds were dissolved in 100% DMSO to a concentration of […] to provide stock solutions. To determine activity against IC-GPCR2, compounds were incubated with IC-GPCR2 stably expressing cells (described above), at 6-8 concentrations ranging from 0.00003 to 10 micromolar, in 96 well plates, in 50 ul of Hams F12 media for 30 minutes. Cells were plated at 17500 cells per well 1 day before running the assay. All compounds were also screened against the parental CHO cells. cAMP was measured using the cAMP dynamic kit from Cis Bio (Bedford, Mass.), according to the manufacturer's instructions. Briefly, cells were lysed and cAMP levels determined by competitive immunoassay using D2 labeled cAMP, and europium cryptate tagged anti cAMP antibody. When in close proximity, the D2 and europium cryptate undergo fluorescence resonance energy transfer (FRET), which is measured as a fluorescence ratio (665 nm/620 nm). Unlabelled cAMP in the cell lysate competed with the D2 labeled cAMP for the europium crypate labeled antibody. The resulting decrease in FRET signal corresponded to intracellular cAMP levels.
Activities of compounds disclosed in Table 1 and Table 2 below are expressed as the % change in FRET signal from DMSO control. “*” no activity observed when tested at 10 micromolar but no higher concentrations were tested. NT indicates the compound was not tested at the indicated concentration.
(TR-FRET usually uses a lanthanide donor and a delayed reading to cut background.)
In the case of `CCc1cnc(N2CCC(c3nc(COc4ccc(S(C)(=O)=O)cc4)co3)CC2)nc1` [Example 123, 5-Ethyl-2-{4-[4-(4-methanesulfonyl-phenoxymethyl)-oxazol-2-yl]-piperidin-1-yl}-pyrimidine], the activation at 10 µM is 72%.
Still for that read-out and setting: the same measure for `CCc1cnc(N2CCC(c3nc(COc4ccc(NC=O)cc4)cs3)CC2)nc1` [Example 116, N-(4-{2-[1-(5-Ethyl-pyrimidin-2-yl)-piperidin-4-yl]-thiazol-4-ylmethoxy}-phenyl)-formamide]: 74%; for `CCCCCCOC(=O)N1CCC(c2nc(COc3ccc(-n4cnnn4)cc3)cs2)CC1` [Example 35, 4-[4-(4-Tetrazol-1-yl-phenoxymethyl)-thiazol-2-yl]-piperidine-1-carboxylic acid hexyl ester]: 64%; for `CC(C)OC(=O)N1CCC(c2nc(COc3ccc(S(C)(=O)=O)cc3F)cs2)CC1` [Example 148, 4-[4-(2-Fluoro-4-methanesulfonyl-phenoxymethyl)-thiazol-2-yl]-piperidine-1-carboxylic acid isopropyl ester]: 74%.
The same measure, in the same setting: the same measure for `CCc1cnc(N2CCC(c3nc(COc4ccc(SC)c(C)c4)cs3)CC2)nc1` [Example 13]: 94%; for `Clc1ccc(N2CCC(c3nc(COc4ccc(-n5cnnn5)cc4)cs3)CC2)nn1` [Example 186, 3-Chloro-6-{4-[4-(4-tetrazol-1-yl-phenoxymethyl)-thiazol-2-yl]-piperidin-1-yl}-pyridazine]: 80%; for `CC(C)(C)OC(=O)N1CCC(c2nc(COc3ccc(SC(F)(F)F)cc3)cs2)CC1` [Example 134, 4-[4-(4-Trifluoromethylsulfanyl-phenoxymethyl)-thiazol-2-yl]-piperidine-1-carboxylic acid tert-butyl ester]: 68%.
As to `CCc1cnc(N2CCC(c3nc(COc4ccc(-n5cnnn5)cc4)cs3)C2)nc1` (stereo not shown) [Example 103, 5-Ethyl-2-{3-[4-(4-tetrazol-1-yl-phenoxymethyl)-thiazol-2-yl]-pyrrolidin-1-yl}-pyrimidine], the activation at 10 µM was found to be 79%.
Turning to `CCNC(=O)N1CCC(c2nc(COc3ccc(-n4cnnn4)cc3)cs2)CC1` [Example 46, 4-[4-(4-Tetrazol-1-yl-phenoxymethyl)-thiazol-2-yl]-piperidine-1-carboxylic acid ethylamide], the activation at 10 µM was 30%.
Same read-out and setting: the same measure for `Clc1cnc(N2CCC(c3nc(COc4ccc(-n5cnnn5)cc4)cs3)CC2)nc1` [Example 60]: 60%.
On the same count and under the same terms, the value for `CC(C)(C)OC(=O)N1CCC(c2nc(COc3ccc(-n4ccnc4)cc3)cs2)CC1` [Example 2, 4-[4-(4-Imidazol-1-yl-phenoxymethyl)-thiazol-2-yl]-piperidine-1-carboxylic acid tert-butyl ester] was 50%; that for `C[C@H](NCc1csc(C2CCN(C(=O)OC(C)(C)C)CC2)n1)c1ccc(S(C)(=O)=O)cc1` [Example 143, 4-(4-{[1-(4-Methanesulfonyl-phenyl)-ethylamino]-methyl}-thiazol-2-yl)-piperidine-1-carboxylic acid tert-butyl ester] was 63%.
With `CCc1cnc(N2CCC(c3nc(COc4c(F)cc(-n5cnnn5)cc4F)cs3)CC2)nc1` [Example 159, 2-{4-[4-(2,6-Difluoro-4-tetrazol-1-yl-phenoxymethyl)-thiazol-2-yl]-piperidin-1-yl}-5-ethyl-pyrimidine], the activation at 10 µM is 78%.
On the same count and under the same terms, the same measure for `CCCCCCCOC(=O)N1CCC(c2nc(COc3ccc(-n4cnnn4)cc3)cs2)CC1` [Example 155, 4-[4-(4-Tetrazol-1-yl-phenoxymethyl)-thiazol-2-yl]-piperidine-1-carboxylic acid heptyl ester]: 73%; for `CS(=O)(=O)c1ccc(OCc2csc(C3CCN(C(=O)Oc4cccc5ccccc45)CC3)n2)cc1` [Example 29, 4-[4-(4-Methanesulfonyl-phenoxymethyl)-thiazol-2-yl]-piperidine-1-carboxylic acid naphthalen-1-yl ester]: 51%.
As for `CC(C)(C)OC(=O)N1CCC(c2nc(COc3ccc(-n4cnnn4)cc3F)cs2)CC1` [Example 19, 4-[4-(2-Fluoro-4-tetrazol-1-yl-phenoxymethyl)-thiazol-2-yl]-piperidine-1-carboxylic acid tert-butyl ester], the activation at 10 µM worked out at 76%.
The same measure, in the same setting: the same measure for `CC(C)(C)OC(=O)N1CCC(c2nc(CNCc3ccc(S(C)(=O)=O)cc3)cs2)CC1` [Example 142, 4-{4-[(4-Methanesulfonyl-benzylamino)-methyl]-thiazol-2-yl}-piperidine-1-carboxylic acid tert-butyl ester]: 78%.
With `COC(=O)c1cc(Cl)cnc1N1CCC(c2nc(COc3ccc(-n4cnnn4)cc3)cs2)CC1` [Example 198, 5′-Chloro-4-[4-(4-tetrazol-1-yl-phenoxymethyl)-thiazol-2-yl]-3,4,5,6-tetrahydro-2H-[1,2′]bipyridinyl-3′-carboxylic acid methyl ester], the activation at 10 µM is 15%.
The same measure, in the same setting: the value for `O=C(OCCOCc1ccccc1)N1CCC(c2nc(COc3ccc(-n4cnnn4)cc3)cs2)CC1` [Example 37, 4-[4-(4-Tetrazol-1-yl-phenoxymethyl)-thiazol-2-yl]-piperidine-1-carboxylic acid 2-benzyloxy-ethyl ester] was 80%; that for `CCc1cnc(N2CCC(c3nc(COc4ccc(S(C)(=O)=O)cc4)cs3)CC2)nc1` [Example 51, 5-Ethyl-2-{4-[4-(4-methanesulfonyl-phenoxymethyl)-thiazol-2-yl]-piperidin-1-yl}-pyrimidine] was 57%; that for `CS(=O)(=O)c1ccc(OCc2csc(C3CCN(C(=O)C45CC6CC(CC(C6)C4)C5)CC3)n2)cc1` [Example 39, Adamantan-1-yl-{4-[4-(4-methanesulfonyl-phenoxymethyl)-thiazol-2-yl]-piperidin-1-yl}-methanone] was 9%.
Take `CC(C)(C)OC(=O)N1CCC(c2nc(COc3ccc(-n4cnnn4)cc3)cs2)C1` (stereo not shown) [Example 102, 3-[4-(4-Tetrazol-1-yl-phenoxymethyl)-thiazol-2-yl]-pyrrolidine-1-carboxylic acid tert-butyl ester]: the activation at 10 µM worked out at 49%.
Still for that read-out and setting: the same measure for `FC(F)(F)c1cnc(N2CCC(c3nc(COc4ccc(-n5cnnn5)nc4)cs3)CC2)nc1` [Example 185, 2-{4-[4-(6-Tetrazol-1-yl-pyridin-3-yloxymethyl)-thiazol-2-yl]-piperidin-1-yl}-5-trifluoromethyl-pyrimidine]: 83%.
Same read-out and setting: the same measure for `C[C@H]1CN(C(=O)OC(C)(C)C)CC[C@H]1c1nc(COc2ccc(-n3cnnn3)cc2)cs1` (stereo in doubt) [Example 144, 3-Methyl-4-[4-(4-tetrazol-1-yl-phenoxymethyl)-thiazol-2-yl]-piperidine-1-carboxylic acid tert-butyl ester]: 81%.

The same test, now with this note: symbol entry.
Turning to `CCOC(=O)c1cnc(N2CCC(c3nc(COc4ccc(-n5cnnn5)cc4)cs3)CC2)c(Cl)c1` [Example 197, 3′-Chloro-4-[4-(4-tetrazol-1-yl-phenoxymethyl)-thiazol-2-yl]-3,4,5,6-tetrahydro-2H-[1,2′]bipyridinyl-5′-carboxylic acid ethyl ester], the “Activity at 10 uM” value was “*”.

(Values after patent US9925189B2, “Heterocyclic receptor agonists for the treatment of diabetes and metabolic disorders” (CymaBay Therapeutics, Inc., priority 2006, dated 2018).)
